What was measured:
HepG2 cells [1] = assay: Mitochondrial membrane potential assay (TMRE); assay type: cell-based, human; conditions: 10 μM, one day
Description: HepG2 cells were seeded into a 6-well plate at 400,000 cells per well. After treatment with the compounds at desired concentration and time, TMRE (ab113852, abcam), Autophagy (ab139484, abcam), ROS (ab113851, abcam), and Lipid peroxidation (ab243377, abcam) assay were performed according to manufacturer's instructions. Fluorescence images were taken using ZOE™ Fluorescent Cell Imager (Biorad) and ROI of fluorescence intensity was measured and calculated by Image J. For microplate reader florescence assay, 40,000 of HepG2 cells were seeded into a 96-well plate and triplicated. GFP (Ex480 nm, Em530 nm) and RFP (Ex549 nm, Em574 nm) were measured using a microplate reader (Hidex Sense Meta Plus).

HepG2 cells [2] = assay: Wound healing assay; assay type: cell-based; conditions: Homo sapiens, HepG2, 96 h, day 4, untreated 100% wound closure, read-out: wound healing delayed by
Description: Transwell membrane was coated with 100 μl collagen (Sigma C3867, USA) diluted with PBS to a concentration of 1 mg/ml. After overnight incubation at 4° C., the collagen solution was discarded and the membrane was washed with PBS. 100,000 cells in 200 μl serum free media together with the tested compounds were added into the upper well and 600 μl of 10% FBS supplemented growth media was added to the lower well as an invasive attractant in a 24-well plate. Cells were incubated at 37° C. in a CO2 incubator for one day. The cells were fixed with 3.7% formaldehyde for 30 minutes at room temperature and washed with PBS twice. The cells were stained with 1% crystal violet in PBS for 20 minutes and residual cells in inner membrane were swabbed gently with a cotton swab. Invaded cells located at the outer membrane were imaged by ZOE Fluorescent Cell Imager (Bio-Rad, USA) and counted by image. For wound healing assay, 100,000 cells per well were seeded into 24-well plates and grown until 95-100% confluent. Linear wound was created by using a 200 μl pipette tip. Image was recorded at the time point of day 0 until control group wound closure with 1 μM of compounds by ZOE Fluorescent Cell Imager (Bio-Rad, USA). Wound areas were measured using ImageJ software.

N#Cc1c(NC(=O)c2cccc3ccccc23)sc2c1CCCC2 [JNK-IN-5A, N-(3-cyano-4,5,6,7-tetrahydrobenzo[b]thiophen-2-yl)-1-naphthamide]
mitochondrial membrane potential (HepG2 cells [1]): significantly decreased
inhibition at 1 µM (HepG2 cells [2]): 32.7%
